Source: ChEMBL document CHEMBL5465560, “Selectivity Literature for EUbOPEN Chemogenomic Library” (2024)
One block for each compound: values may come before it.

How the values were obtained:
[1] = test system: Epidermal growth factor receptor (Homo sapiens), P00533 [UNDEFINED MUTATION]; experiment: Selectivity interaction (KinomeScan (DiscoverX)) EUB0000618a EGFR; settings: at 10 µM
[2] = target: Mitogen-activated protein kinase kinase kinase 11 (Homo sapiens) (UniProt Q16584); experiment: Selectivity interaction (KinomeScan (DiscoverX)) EUB0000045b MAP3K11
Mitogen-activated protein kinase kinase kinase 11 (Homo sapiens), sequence (Q16584 whole entry, looked up): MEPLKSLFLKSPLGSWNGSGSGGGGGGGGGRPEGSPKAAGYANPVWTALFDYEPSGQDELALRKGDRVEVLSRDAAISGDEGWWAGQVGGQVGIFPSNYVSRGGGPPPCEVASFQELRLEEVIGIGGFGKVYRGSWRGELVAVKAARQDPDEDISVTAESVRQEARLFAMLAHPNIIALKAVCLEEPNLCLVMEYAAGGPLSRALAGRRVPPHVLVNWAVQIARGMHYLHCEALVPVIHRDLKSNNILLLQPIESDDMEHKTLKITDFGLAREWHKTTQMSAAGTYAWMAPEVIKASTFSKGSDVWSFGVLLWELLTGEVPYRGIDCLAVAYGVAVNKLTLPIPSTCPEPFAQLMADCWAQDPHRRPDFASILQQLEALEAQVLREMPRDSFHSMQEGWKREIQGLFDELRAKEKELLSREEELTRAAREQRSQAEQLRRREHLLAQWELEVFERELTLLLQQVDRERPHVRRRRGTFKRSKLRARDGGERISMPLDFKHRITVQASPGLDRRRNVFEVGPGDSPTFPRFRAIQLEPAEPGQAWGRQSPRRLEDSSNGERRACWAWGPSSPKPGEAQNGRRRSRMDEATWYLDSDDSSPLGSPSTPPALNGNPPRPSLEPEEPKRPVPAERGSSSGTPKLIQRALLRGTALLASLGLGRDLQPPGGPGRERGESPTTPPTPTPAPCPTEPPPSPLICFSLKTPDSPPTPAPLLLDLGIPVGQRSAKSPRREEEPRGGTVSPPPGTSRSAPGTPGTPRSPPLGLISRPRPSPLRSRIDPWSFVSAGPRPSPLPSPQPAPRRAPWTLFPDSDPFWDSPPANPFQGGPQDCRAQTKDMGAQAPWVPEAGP

[3] = target: T1, Dual specificity mitogen-activated protein kinase kinase 7 (Homo sapiens) (UniProt O14733); experiment: Selectivity interaction (KinomeScan (DiscoverX)) EUB0000045b MAP2K7
T1 sequence (whole entry): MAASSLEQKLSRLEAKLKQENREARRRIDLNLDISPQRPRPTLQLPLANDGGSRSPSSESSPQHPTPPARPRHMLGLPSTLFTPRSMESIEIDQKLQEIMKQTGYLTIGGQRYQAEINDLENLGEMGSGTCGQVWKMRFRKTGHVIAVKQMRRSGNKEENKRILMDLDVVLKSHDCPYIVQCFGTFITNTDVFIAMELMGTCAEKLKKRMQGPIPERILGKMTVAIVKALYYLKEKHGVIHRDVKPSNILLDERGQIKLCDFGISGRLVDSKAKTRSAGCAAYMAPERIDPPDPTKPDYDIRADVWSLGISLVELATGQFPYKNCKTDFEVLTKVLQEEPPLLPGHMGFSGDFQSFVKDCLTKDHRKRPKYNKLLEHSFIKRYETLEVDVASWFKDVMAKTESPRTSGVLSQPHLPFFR

[4] = target: T2, Mitogen-activated protein kinase kinase kinase 2 (Homo sapiens) (UniProt Q9Y2U5); experiment: Selectivity interaction (ActivX KiNativ screen (kinase selectivity in THP-1 cell lysates)) EUB0000639a MAP3K2; type: subcellular; settings: lysate, at 0.04 µM
T2 sequence (whole entry): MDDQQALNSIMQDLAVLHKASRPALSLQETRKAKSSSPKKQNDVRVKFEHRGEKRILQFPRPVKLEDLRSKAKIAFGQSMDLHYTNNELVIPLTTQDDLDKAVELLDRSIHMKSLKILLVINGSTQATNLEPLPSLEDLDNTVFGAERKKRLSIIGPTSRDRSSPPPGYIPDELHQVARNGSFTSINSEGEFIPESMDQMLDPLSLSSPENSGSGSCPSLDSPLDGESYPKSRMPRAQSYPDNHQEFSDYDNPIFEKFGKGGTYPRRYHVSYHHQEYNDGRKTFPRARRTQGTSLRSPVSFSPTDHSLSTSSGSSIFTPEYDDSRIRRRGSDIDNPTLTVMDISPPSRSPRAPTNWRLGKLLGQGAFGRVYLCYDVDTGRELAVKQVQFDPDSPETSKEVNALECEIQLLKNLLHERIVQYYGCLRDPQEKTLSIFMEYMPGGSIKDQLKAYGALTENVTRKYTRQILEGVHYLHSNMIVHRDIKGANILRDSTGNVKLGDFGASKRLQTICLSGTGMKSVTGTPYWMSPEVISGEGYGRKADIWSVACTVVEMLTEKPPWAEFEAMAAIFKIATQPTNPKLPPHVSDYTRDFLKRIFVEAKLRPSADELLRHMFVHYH

[5] = target: Mitogen-activated protein kinase 14 (Homo sapiens, UniProt Q16539); experiment: Selectivity interaction (ActivX KiNativ screen (kinase selectivity in THP-1 cell lysates)) EUB0000639a MAPK14; type: subcellular; settings: lysate, at 1 µM
Mitogen-activated protein kinase 14, sequence (Q16539 whole entry): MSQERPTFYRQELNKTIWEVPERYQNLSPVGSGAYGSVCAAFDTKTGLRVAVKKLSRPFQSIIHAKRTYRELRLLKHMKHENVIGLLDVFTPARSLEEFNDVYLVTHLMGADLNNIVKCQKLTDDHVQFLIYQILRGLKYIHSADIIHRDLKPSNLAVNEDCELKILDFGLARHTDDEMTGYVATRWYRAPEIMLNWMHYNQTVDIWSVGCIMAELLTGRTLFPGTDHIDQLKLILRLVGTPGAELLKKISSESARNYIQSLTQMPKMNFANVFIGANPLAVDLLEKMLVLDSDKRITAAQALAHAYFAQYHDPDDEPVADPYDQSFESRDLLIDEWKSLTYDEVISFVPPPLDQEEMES

[6] = target: Myosin light chain kinase 2, skeletal/cardiac muscle (Homo sapiens) (UniProt Q9H1R3); experiment: Selectivity interaction (ProQinase) EUB0000171b MYLK2
Myosin light chain kinase 2, skeletal/cardiac muscle (Homo sapiens), sequence (Q9H1R3 whole entry): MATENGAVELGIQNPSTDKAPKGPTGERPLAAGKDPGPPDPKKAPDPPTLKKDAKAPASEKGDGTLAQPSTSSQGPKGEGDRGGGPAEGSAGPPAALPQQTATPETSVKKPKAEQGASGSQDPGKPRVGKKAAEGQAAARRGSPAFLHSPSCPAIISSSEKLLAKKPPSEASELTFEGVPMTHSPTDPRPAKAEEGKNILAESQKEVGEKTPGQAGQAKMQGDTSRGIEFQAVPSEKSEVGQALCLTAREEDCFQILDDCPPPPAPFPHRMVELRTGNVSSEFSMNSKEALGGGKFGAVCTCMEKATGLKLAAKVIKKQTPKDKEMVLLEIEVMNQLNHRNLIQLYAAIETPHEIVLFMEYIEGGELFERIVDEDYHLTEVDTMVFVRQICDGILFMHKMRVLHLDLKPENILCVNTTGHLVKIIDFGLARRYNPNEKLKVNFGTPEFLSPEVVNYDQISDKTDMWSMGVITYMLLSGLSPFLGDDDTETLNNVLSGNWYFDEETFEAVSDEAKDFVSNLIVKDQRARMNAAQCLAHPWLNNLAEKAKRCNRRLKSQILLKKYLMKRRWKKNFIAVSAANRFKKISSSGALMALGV

[7] = test system: Tyrosine-protein kinase ABL1 (Homo sapiens), P00519 [H396P]; experiment: Selectivity interaction (KinomeScan (DiscoverX)) EUB0000666a ABL1; settings: at 10 µM
[8] = target: Serine/threonine-protein kinase N2 (Homo sapiens, UniProt Q16513); experiment: Selectivity interaction (KinomeScan (DiscoverX)) EUB0000666a PKN2; settings: at 10 µM
Serine/threonine-protein kinase N2, sequence (Q16513 whole entry, looked up): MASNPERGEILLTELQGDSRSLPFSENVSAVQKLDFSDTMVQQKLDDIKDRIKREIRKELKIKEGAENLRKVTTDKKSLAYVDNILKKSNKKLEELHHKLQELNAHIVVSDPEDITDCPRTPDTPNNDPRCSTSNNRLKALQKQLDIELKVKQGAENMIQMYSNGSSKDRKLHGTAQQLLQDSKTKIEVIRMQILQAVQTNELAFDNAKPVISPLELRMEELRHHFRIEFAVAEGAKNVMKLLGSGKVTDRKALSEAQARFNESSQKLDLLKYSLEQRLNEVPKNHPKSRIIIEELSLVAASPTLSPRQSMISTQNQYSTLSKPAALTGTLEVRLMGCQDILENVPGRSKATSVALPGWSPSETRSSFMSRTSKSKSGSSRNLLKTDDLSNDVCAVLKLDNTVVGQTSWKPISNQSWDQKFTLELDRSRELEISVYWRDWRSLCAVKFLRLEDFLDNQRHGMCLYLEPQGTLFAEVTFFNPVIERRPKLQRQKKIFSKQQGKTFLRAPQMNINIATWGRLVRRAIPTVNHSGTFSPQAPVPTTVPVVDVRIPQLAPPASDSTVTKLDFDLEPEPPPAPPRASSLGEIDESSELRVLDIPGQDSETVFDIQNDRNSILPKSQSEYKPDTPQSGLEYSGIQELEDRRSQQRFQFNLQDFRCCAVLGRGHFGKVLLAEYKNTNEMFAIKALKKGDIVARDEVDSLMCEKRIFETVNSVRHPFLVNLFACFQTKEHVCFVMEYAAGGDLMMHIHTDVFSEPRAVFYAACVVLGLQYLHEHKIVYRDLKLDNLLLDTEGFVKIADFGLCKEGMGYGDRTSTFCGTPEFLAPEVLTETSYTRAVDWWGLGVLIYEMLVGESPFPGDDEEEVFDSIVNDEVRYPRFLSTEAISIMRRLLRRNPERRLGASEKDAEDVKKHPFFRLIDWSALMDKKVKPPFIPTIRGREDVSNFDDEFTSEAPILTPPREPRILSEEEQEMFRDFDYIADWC

[9] = target: T3, Tyrosine-protein kinase receptor TYRO3 (Homo sapiens) (UniProt Q06418); experiment: Selectivity interaction (KinomeScan (DiscoverX)) EUB0000666a TYRO3; settings: at 10 µM
T3 sequence (whole entry): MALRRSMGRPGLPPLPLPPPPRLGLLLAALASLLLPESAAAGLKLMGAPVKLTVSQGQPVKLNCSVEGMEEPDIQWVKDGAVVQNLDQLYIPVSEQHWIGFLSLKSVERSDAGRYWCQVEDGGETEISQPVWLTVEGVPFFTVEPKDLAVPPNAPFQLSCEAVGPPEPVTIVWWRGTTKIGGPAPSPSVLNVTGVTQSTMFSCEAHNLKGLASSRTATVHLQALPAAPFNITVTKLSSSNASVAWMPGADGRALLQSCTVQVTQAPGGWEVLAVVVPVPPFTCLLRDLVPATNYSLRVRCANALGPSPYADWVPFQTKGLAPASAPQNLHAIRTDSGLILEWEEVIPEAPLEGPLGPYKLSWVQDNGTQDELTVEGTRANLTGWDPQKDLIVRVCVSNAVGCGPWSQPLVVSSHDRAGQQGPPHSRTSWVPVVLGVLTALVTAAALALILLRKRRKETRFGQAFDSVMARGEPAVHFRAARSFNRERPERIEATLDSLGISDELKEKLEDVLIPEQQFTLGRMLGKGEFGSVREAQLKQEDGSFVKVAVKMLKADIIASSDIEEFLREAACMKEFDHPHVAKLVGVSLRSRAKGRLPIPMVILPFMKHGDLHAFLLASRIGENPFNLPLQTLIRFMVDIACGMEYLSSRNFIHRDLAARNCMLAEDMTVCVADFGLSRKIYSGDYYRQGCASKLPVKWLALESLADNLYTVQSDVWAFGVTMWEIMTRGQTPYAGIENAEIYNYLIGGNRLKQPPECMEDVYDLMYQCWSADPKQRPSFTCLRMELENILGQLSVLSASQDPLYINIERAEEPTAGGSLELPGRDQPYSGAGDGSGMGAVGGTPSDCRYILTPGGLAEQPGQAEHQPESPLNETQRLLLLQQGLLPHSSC

Epidermal growth factor receptor (Homo sapiens), P00533 [UNDEFINED MUTATION], sequence (P00533 whole entry, looked up, change not shown): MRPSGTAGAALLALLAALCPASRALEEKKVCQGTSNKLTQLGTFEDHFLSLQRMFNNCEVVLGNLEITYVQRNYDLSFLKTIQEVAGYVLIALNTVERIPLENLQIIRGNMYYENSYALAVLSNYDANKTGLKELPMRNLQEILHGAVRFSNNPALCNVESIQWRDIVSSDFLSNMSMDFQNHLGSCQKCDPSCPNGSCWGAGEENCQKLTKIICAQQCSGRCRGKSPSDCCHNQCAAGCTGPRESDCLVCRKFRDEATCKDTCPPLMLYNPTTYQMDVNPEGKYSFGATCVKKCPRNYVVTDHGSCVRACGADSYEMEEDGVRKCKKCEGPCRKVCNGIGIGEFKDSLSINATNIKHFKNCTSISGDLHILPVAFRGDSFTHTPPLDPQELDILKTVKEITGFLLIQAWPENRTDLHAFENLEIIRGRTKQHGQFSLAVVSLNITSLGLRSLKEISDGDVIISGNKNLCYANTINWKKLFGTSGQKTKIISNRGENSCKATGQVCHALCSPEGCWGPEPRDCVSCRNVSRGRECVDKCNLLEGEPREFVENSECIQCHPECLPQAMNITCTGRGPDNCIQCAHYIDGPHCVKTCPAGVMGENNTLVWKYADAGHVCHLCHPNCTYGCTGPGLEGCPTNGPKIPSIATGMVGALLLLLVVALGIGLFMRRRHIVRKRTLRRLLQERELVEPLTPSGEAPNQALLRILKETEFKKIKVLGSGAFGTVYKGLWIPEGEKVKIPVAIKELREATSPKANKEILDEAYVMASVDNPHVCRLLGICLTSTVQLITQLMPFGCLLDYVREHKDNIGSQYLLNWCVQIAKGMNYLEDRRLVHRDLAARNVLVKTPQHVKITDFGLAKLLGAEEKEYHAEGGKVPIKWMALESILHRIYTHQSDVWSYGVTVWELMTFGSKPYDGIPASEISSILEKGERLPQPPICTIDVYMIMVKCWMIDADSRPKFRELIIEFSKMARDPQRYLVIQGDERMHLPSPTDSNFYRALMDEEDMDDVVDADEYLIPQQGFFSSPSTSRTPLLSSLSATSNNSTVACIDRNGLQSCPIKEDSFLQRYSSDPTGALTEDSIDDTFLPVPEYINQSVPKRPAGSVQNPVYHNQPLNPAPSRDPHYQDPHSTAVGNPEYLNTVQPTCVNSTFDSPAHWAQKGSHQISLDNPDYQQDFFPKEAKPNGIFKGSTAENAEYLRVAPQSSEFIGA

Compound: O[C@H]1CC[C@H](Nc2ncc3nc(Nc4c(F)cc(F)cc4F)n([C@H]4CCOC4)c3n2)CC1
- % of control [1]: 9.4%

Compound: C=CC(=O)Nc1cc(-n2c(=O)ccc3cnc4ccc(-c5ccc(NS(C)(=O)=O)cc5)cc4c32)ccc1C
- % of control ([2]; at 1 µM): 91%
- % of control ([2]; at 10 µM): 87%
- % of control ([3]; at 1 µM): 49%
- % of control ([3]; at 10 µM): 6.1%

- % of inhibition [4]: 1.8%
- % of inhibition [5]: -26.4%
Compound: CC[C@@H]1[C@H](F)C(=O)N[C@@H]1COc1nccc2cc(C(N)=O)c(OC)cc12 [ZIMLOVISERTIB]

- % of control ([6]; at 1 µM): 83%
- % of control ([6]; at 5 µM): 59%
Compound: C=CC(=O)Nc1cccc(C(=O)Nc2ccc(Nc3cc(-c4[nH]c(SC)nc4C)ccn3)cc2)c1

Compound: O=C(NOC[C@H](O)CO)c1ccc(F)c(F)c1Nc1ccc(I)cc1F
- % of control [7]: 100%
- % of control [8]: 100%
- % of control [9]: 80%
